Measurements: US20240076394A1, “MODULATING THE IMMUNE RESPONSE USING ANTI-CD30 ANTIBODY-DRUG CONJUGATES” (Seagen Inc., priority 2020, published 2024)
Entries after “also recorded” stand apart in the source; their conditions may differ.

B1: SGN-CD30C: antibody-drug conjugate of Formula (IC): L is anti-CD30 antibody brentuximab, y is 1, z is 8, p is 8 (conjugate)
VH: QIQLQQSGPEVVKPGASVKISCKASGYTFTDYYITWVKQKPGQGLEWIGWIYPGSGNTKYNEKFKGKATLTVDTSSSTAFMQLSSLTSEDTAVYFCANYGNYWFAYWGQGTQVTVSA
VL: DIVLTQSPASLAVSLGQRATISCKASQSVDFDGDSYMNWYQQKPGQPPKVLIYAASNLESGIPARFSGSGSGTDFTLNIHPVEEEDAATYYCQQSNEDPWTFGGGTKLEIK

Legend:
[1] = tested on: xenograft models of Hodgkin disease; conditions: SCID mouse xenograft models of Hodgkin disease; cited from earlier work
CD30+ cell lines = conditions: in vitro; cited from earlier work
[2] = tested on: CD30+ inducible T regulatory cells (iTregs); experiment: In vitro depletion of CD30+ inducible T regulatory cells (flow cytometry live cell counts); format: cell-based, human; conditions: iTregs from normal donors, CD3/CD28 beads 1:4 and 10 ng/ml IL-2, 4-5 days, titration of ADC; compared to non-binding control ADC hIgG-7782; FIG. 1A
Description: The ability of the anti-CD30 antibody-drug conjugate SGN-CD30C to deplete CD30+T regulatory (Tregs) was assessed in vitro. Inducible T regulatory cells (iTregs) were differentiated from cryopreserved CD4^+ T cells of two normal donors (Cellero, Bothell, Washington, Cat #1023) in X-Vivo 15 media (Lonza, Cat #04-418Q) supplemented with 50 ng/ml TGFβ1 (R&D, cat #100-B), 50 ng/ml IL-2 (R&D, Cat #202-IL/CF) and a 1:100 dilution of Lipid Mixture 1 (Sigma, Cat #L0288-100 ml) with CD3/CD28 beads (Miltenyi, Cat #130-095-345) at a 1:20 bead:cell ratio for 6 days at 37° C. and 5% CO2, followed by 2 days resting in X-Vivo 15 media only. Differentiated iTregs were then immunophenotyped prior to in vitro cytotoxicity assays with a viability dye and fluorescently labeled anti-human CD3, CD4, CD8, CD25 and Foxp3 (Biolegend and BD Pharmingen), and analyzed on an Attune NxT Flow Cytometer (Life Technologies). Following differentiation, the iTreg populations were 38% and 53% CD25^+FoxP3^+. Inducible Tregs from 3 additional normal donors were also ordered directly from Cellero (Cat #1042). […]

[3] = tested on: CD4+CD127lowCD25+ peripheral blood Tregs (CD30+); experiment: In vitro depletion of CD30+ peripheral blood T regulatory cells (flow cytometry live cell counts); format: cell-based, human; conditions: peripheral blood Tregs from 2 normal donors, CD3/CD28 beads 1:4 and 10 ng/ml IL-2, 4-5 days, titration of ADC; compared to non-binding control ADC hIgG-7782; FIG. 1B
Description: Cryopreserved inducible Tregs from 5 normal donors and CD4^+CD127^lowCD25^+ peripheral blood Tregs from 2 normal donors (Cellero and Stem Cell Technologies) were washed and resuspended in RPMI 1640 media containing 10% FBS and put into culture with CD3/CD28 beads at a 1:4 bead:cell ratio and 10 ng/ml IL-2 for 4-5 days in a 96-well round bottom plate at 37° C. and 5% CO2 in a titration of cAC10-7782 or non-specific control hIgG-7782. At the end of the incubation, cells were washed and stained with a Zombie Aqua viability dye and CD30 PE (Biolegend), and both total and CD30^+ live cell counts were determined using an Attune Nxt Flow cytometer. Untreated inducible Tregs were 37-80% CD30^+ and peripheral Tregs were 33-68% CD30^+ at the conclusion of the assay.
Cell counts are shown as the percent of untreated control.

Molecule	antitumor activity [1]	growth arrest of CD30+ cell lines (CD30+ cell lines)	total CD30+ iTreg count (percent of untreated control) [2]	peripheral blood CD30+ Treg count (percent of untreated control) [3]
cAC10: chimeric IgG1 monoclonal antibody that specifically binds CD30	pronounced antitumor activity	induces growth arrest	–	–
B1	–	–	depleted; also recorded: dose-dependent reduction	depleted; also recorded: dose-dependent reduction
